Laboratory results: US5373015A, “Fused pyridine derivatives useful as angiotensin II antagonists” (Imperial Chemical Industries PLC, priority 1991, dated 1994)

Target: T1, AII receptors (Cavia porcellus, UniProt Q9WV26)
T1 construct: from tissue; host or cells: guinea pig adrenal gland, cell surface membrane fraction
T1 sequence (Q9WV26 1-359): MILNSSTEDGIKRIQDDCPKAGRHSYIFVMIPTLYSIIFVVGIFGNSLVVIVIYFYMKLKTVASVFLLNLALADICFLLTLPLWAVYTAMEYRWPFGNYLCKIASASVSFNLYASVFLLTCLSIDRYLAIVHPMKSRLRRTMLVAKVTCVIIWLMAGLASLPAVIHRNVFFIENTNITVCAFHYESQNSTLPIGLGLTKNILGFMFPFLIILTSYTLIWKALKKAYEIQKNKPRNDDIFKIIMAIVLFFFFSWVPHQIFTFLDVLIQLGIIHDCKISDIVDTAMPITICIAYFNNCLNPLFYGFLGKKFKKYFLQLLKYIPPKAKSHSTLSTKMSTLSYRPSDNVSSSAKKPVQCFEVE
Assay: Test A: displacement of radiolabelled AII binding from guinea pig adrenal gland membrane fraction
Conditions: guinea pig adrenal gland membranes; read-out: IC50 (concentration for 50% displacement of radiolabelled AII binding)
Procedure: This in vitro procedure involves the incubation of the test compound initially at a concentration of 100 micromolar (or less) in a buffered mixture containing fixed concentrations of radiolabelled AII and a cell surface membrane fraction prepared from a suitable angiotensin target tissue. In this test, the source of cell surface membranes is the guinea pig adrenal gland which is well known to respond to AII. Interaction of the radiolabelled AII with its receptors (assessed as radiolabel bound to the particulate membrane fraction following removal of unbound radiolabel by a rapid filtration procedure such as is standard in such studies) is antagonized by compounds which also bind to the membrane receptor sites and the degree of antagonism (observed in the test as displacement of membrane-bound radioactivity) is determined readily by comparing the receptor-bound radioactivity in the presence of the test compound at the specified test concentration with a control value determined in the absence of the test compound. Using this procedure compounds showing at least 50% displacement of radiolabelled AII binding at a concentration of 10^4 M are retested at lower concentrations to determine their potency. […]

CCc1cc2c(ccc(=O)n2Cc2ccc(OC(C(=O)O)c3ccccc3)cc2)c(CC)n1 (stereo not shown) [Example 2]
IC50: 270 nM
